# Test system: P12-Ichikawa
# Experiment: cell viability relative to DMSO control; higher = less cytotoxic
# Conditions: 48 h
# How it was run: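 Viability is expressed as a percentage of DMSO wells within each plate, and cell-free wells serve as background. Seeding densities in the 1536-well plates (5 μl) were 500 cells/well for NOMO1 or SEM leukemia cells and 1000 cells/well for P12-Ichikawa. Each line was adapted for at least four passages in each medium. Library compounds in DMSO were pin-dosed at 47 μM to 0.79 nM (11 points, threefold), and CellTiter-Glo One luminescence was read after 48 h at 37°C.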
# [1] = HPLM + 10% dialyzed FBS, 0.000781 µM
# [2] = HPLM + 10% dialyzed FBS, 0.00234 µM
# [3] = HPLM + 10% dialyzed FBS, 0.00702 µM
# [4] = HPLM + 10% dialyzed FBS, 0.0211 µM
# [5] = HPLM + 10% dialyzed FBS, 0.0632 µM
# [6] = HPLM + 10% dialyzed FBS, 0.19 µM
# [7] = HPLM + 10% dialyzed FBS, 0.569 µM
# [8] = HPLM + 10% dialyzed FBS, 1.71 µM
# [9] = HPLM + 10% dialyzed FBS, 5.12 µM
# [10] = HPLM + 10% dialyzed FBS, 15.4 µM
# [11] = HPLM + 10% dialyzed FBS, 46.1 µM
# [12] = RPMI 5 mM glucose + 10% FBS, 0.000781 µM
# [13] = RPMI 5 mM glucose + 10% FBS, 0.00234 µM
# [14] = RPMI 5 mM glucose + 10% FBS, 0.00702 µM
# [15] = RPMI 5 mM glucose + 10% FBS, 0.0211 µM
# [16] = RPMI 5 mM glucose + 10% FBS, 0.0632 µM
# [17] = RPMI 5 mM glucose + 10% FBS, 0.19 µM
# [18] = RPMI 5 mM glucose + 10% FBS, 0.569 µM
# [19] = RPMI 5 mM glucose + 10% FBS, 1.71 µM
# [20] = RPMI 5 mM glucose + 10% FBS, 5.12 µM
# [21] = RPMI 5 mM glucose + 10% FBS, 15.4 µM
# [22] = RPMI 5 mM glucose + 10% FBS, 46.1 µM
# [23] = RPMI 5 mM glucose + 10% dialyzed FBS, 0.000781 µM
# [24] = RPMI 5 mM glucose + 10% dialyzed FBS, 0.00234 µM
# [25] = RPMI 5 mM glucose + 10% dialyzed FBS, 0.00702 µM
# [26] = RPMI 5 mM glucose + 10% dialyzed FBS, 0.0211 µM
# [27] = RPMI 5 mM glucose + 10% dialyzed FBS, 0.0632 µM
# [28] = RPMI 5 mM glucose + 10% dialyzed FBS, 0.19 µM
# [29] = RPMI 5 mM glucose + 10% dialyzed FBS, 0.569 µM
# [30] = RPMI 5 mM glucose + 10% dialyzed FBS, 1.71 µM
# [31] = RPMI 5 mM glucose + 10% dialyzed FBS, 5.12 µM
# [32] = RPMI 5 mM glucose + 10% dialyzed FBS, 15.4 µM
# [33] = RPMI 5 mM glucose + 10% dialyzed FBS, 46.1 µM
Compound,cell viability [1] [%],cell viability [2] [%],cell viability [3] [%],cell viability [4] [%],cell viability [5] [%],cell viability [6] [%],cell viability [7] [%],cell viability [8] [%],cell viability [9] [%],cell viability [10] [%],cell viability [11] [%],cell viability [12] [%],cell viability [13] [%],cell viability [14] [%],cell viability [15] [%],cell viability [16] [%],cell viability [17] [%],cell viability [18] [%],cell viability [19] [%],cell viability [20] [%],cell viability [21] [%],cell viability [22] [%],cell viability [23] [%],cell viability [24] [%],cell viability [25] [%],cell viability [26] [%],cell viability [27] [%],cell viability [28] [%],cell viability [29] [%],cell viability [30] [%],cell viability [31] [%],cell viability [32] [%],cell viability [33] [%]
CN(C)CCOc1cc(-c2cn[nH]c2)ccc1NC(=O)C1COc2ccccc2O1 (stereo not drawn),105,112,103,107,114,117,110,104,98.7,95.3,95.3,107,113,115,112,117,118,128,113,107,88.8,84.1,105,122,123,116,122,125,128,118,109,95.8,97.2
COc1cc2c(cc1-c1c(C)noc1C)ncc1[nH]c(=O)n([C@H](C)c3ccccn3)c12,107,109,111,111,115,105,103,86.2,44.2,48.9,12.2,107,110,101,111,115,99.2,110,92.1,48.3,48.5,23.1,112,106,109,104,105,105,101,90.2,52.4,48.6,22.4
CCN(CC)CC#CCOC(=O)C(O)(c1ccccc1)C1CCCCC1 (stereo not drawn),105,118,113,78.3,119,110,120,117,118,118,106,,,,,,,,,,,,118,119,120,85.5,137,135,125,123,122,117,111
CC(C)(C)c1cc(NC(=O)Nc2ccc(-c3cn4c(n3)sc3cc(OCCN5CCOCC5)ccc34)cc2)no1,88.7,99.1,97.4,108,95.3,99.4,104,101,94.4,101,91,83.8,89.9,88.1,89.2,86,88.9,86.4,82.5,82.6,80.3,85.6,93.4,91.6,93.1,88.9,96.6,92.1,101,92.4,87.7,93.8,88.5
COC(=O)Nc1nc2cc(C(=O)c3cccs3)ccc2[nH]1,121,107,110,55.9,37,17.8,25.4,14.6,10.1,10.2,36.8,117,123,119,82,42.2,18.1,23.3,16.7,10.5,11.8,33.1,120,114,128,96.5,57.6,27.3,35,25.1,17.4,18.5,48
CN(C)c1ccc(O)c2c1C[C@H]1C[C@H]3[C@H](N(C)C)C(O)=C(C(N)=O)C(=O)[C@@]3(O)C(O)=C1C2=O,109,106,105,97.4,107,110,103,99.9,104,91.2,106,113,110,101,100,112,103,101,95.2,88.5,94.9,93.9,110,116,112,118,118,95.6,86.2,81.7,82.5,92.6,98.8
CNC1CCC(N(Cc2cccc(-c3ccncc3)c2)C(=O)c2sc3ccccc3c2Cl)CC1 (stereo not drawn),96.9,102,107,99.9,97.3,99.7,107,13.8,4.58,1.97,0.291,89.2,92.9,91.4,96.6,94.5,94.8,102,61.3,4.21,3.93,1.13,79.1,86.1,86.9,95.8,86.2,94.4,97.1,44.7,4.4,3.5,0.803
CC\1=C/C=C\C=[N]1[Pt](N)(Cl)Cl,98.1,108,113,108,105,109,102,114,104,107,108,98.1,98.4,102,104,118,118,114,106,99.1,108,97.3,102,109,98.3,107,114,112,110,105,105,87.2,91.4

# From the supplement of paper PMC11451515
